Results taken from patent US9180107B2 (NANOPHARMACEUTICALS LLC, priority 2009, dated 2015).

Columns and labels:
[1] = tested on: MDA-MB cells; assay: Apoptosis by flow cytometry (FACS) in perfusion bellows culture; format: cell-based, human; conditions: for induced apoptosis compared to untreated control: day 2
Protocol: MDA-MB cells grown in perfusion bellows cell culture were treated with different concentrations of tetrac (10^−7 M to 10^−5 M) daily. Cells were harvested on the day indicated. Two million cells of each sample were prepared for flow cytometry. Flow cytometry was conducted as described in Example 1, infra.
Cells were harvested from flakes by trypsinization, washed with PBS and were resuspended in 200 μL PBS (1×10^5-1×10^6 cells). To quantify cellular DNA content, cells were permeabilized by fixation with 70% ethanol for 30 min at 4° C. Samples can be stored in 70% ethanol at −20° C. for several weeks prior to propidium iodide (PI) staining and flow cytometric analysis. If cellular DNA quantification was performed on the same day of cell harvest, the cells were washed after permeabilization in PBS and resuspended in 500 μL PBS. Then 2.5 μL RNase (DNase-free) was added to the cell suspension and incubation was carried out at 37° C. for 30 min. The cell suspension was chilled on ice to 4° C. and 50 μL propidium iodide (PI) was added to the cell suspension. Samples were then kept in the dark at room temperature for 30 min, after which they were subjected to flow cytometry. Samples were analyzed on FACSCalibur™ (Becton Dickinson), using CellQuest software to determine DNA content. Fluorescence-activated cell sorting (FACS) analysis was performed using Annexin V-FITC and PI. The relative percentages of cells in G1, S, or G2/M phase were calculated from FL-2 histograms using ModFit LT software.
Cells were harvested for FACS analysis 1-5 d after treatment with 10^−7 to 10^−5 M tetrac. […] (See FIG. 7). By day 2, tetrac, 10^−7M and 10^−6M, induced apoptosis by 2.5-fold as compared to untreated control. Similar results were obtained after 4 d of treatment of tetrac. […] (See FIG. 7).

[2] = tested on: human embryonic kidney 293T cells; assay: Proliferation of non-malignant cells; format: cell-based; conditions: 10^−6M daily for 7 days
Protocol: FIG. 9 is a series of graphs showing the comparison of nano-tetrac and tetrac on cell proliferation in non-malignant cells. CV-1 cells (FIG. 9A) and 293 T cells (FIG. 9B) were treated daily with 10^−6 M tetrac or nano-tetrac. Cells were harvested at the time points indicated. Total cell numbers taken after each treatment were used as an indicator for tetrac- or nano-tetrac-induced anti-proliferation.
In order to confirm that tetrac and nano-tetrac only suppress cell proliferation in cancer cells, tetrac and nano-tetrac were also examined for potential anti-proliferative effects on immortalized non-malignant cells, using monkey kidney epithelial CV-1 cells and human embryonic kidney 293T cells. The cells were treated daily with either 10^−6M tetrac or 10^−6M nano-tetrac for 7 days, then were harvested, counted and examined microscopically.

[3] = tested on: MDA-MB cells; assay: Pro-apoptotic gene expression by RT-PCR; format: cell-based, human; conditions: 10^−6 M
Protocol: MDA-MB cells were treated daily with 10^−6M of tetrac or nano-tetrac in bellows perfusion culture system. Cells were harvested after 3 days of treatment and total RNA was extracted. RT-PCR was conducted as described in Example 1, infra.
Total RNA was isolated as described previously. (See Lin et al., 2008. Carcinogenesis. 29:62-69). First strand complementary DNAs were synthesized from 1 μg of total RNA using oligo dT and AMV Reverse Transcriptase (Promega, Madison, Wis.). First-strand cDNA templates were amplified for GAPDH, c-fos, PIG3, c-Jun, and BAD mRNAs by polymerase chain reaction (PCR), using a hot start (Ampliwax, Perkin Elmer, Foster City, Calif.). Primer sequences were GAPDH [5′-[…]-3′ (forward) (SEQ ID NO: 1) and 5′-[…]-3′ (reverse) (SEQ ID NO:2)], c-fos [5′-[…]-3′(forward) (SEQ ID NO:3) and 5′-CAGTCA-[…]-3′ (reverse) (SEQ ID NO:4)], PIG3 [5′-[…]-[…]-3′(forward) (SEQ ID NO:5) and 5′-[…]-3′ (reverse) (SEQ ID NO:6)], c-jun [5′-[…]-3′ (forward) (SEQ ID NO:7) and 5′-[…]-3′ (reverse) (SEQ ID NO:8)] and BAD [5′-GTT-[…]-3′ (forward) (SEQ ID NO:9) and 5′-[…]-3′ (reverse) (SEQ ID NO:10)]. The PCR cycle was an initial step of 95° C. for 3 min, followed by 94° C. for 1 min, 55° C. for 1 min, 72° C. for 1 min, then 25 cycles and a final cycle of 72° C. for 8 min. […] Photographs were scanned under direct light for quantitation and illustration. […]

SMILES: O=C(O)Cc1cc(I)c(Oc2cc(I)c(O)c(I)c2)c(I)c1 [tetrac, Tetraiodothyroacetic acid]
- increase of apoptotic cells compared to untreated control cells ([1]; 10^−5 M, 1 d): 10 fold
- induced apoptosis compared to untreated control ([1]; 10^−6M): 2.5 fold
- induced apoptosis compared to untreated control ([1]; 10^−7M): 2.5 fold
- change in cell numbers and morphology vs untreated control [2]: no significant change
- expression of c-fos [3]: increased expression
- expression of c-jun [3]: increased expression
